This note sets out measurements from patent publication US20230374025A1, “FGFR INHIBITOR COMPOUND AND USE THEREOF” (SHENZHEN KANGSU PHARMACEUTICAL TECHNOLOGY CO., LTD., priority 2021, published 2023).

For orientation: IC50 means the concentration that inhibits the measured activity by half. Read a high IC50 as lower potency.

Holding throughout (format): biochemical
One assay has as its target T1, VEGFR2 (Homo sapiens, UniProt P35968).
T1 construct: purchased Carna 08-191
The assay is described as follows: Assay I: VEGFR2 kinase inhibition (HTRF KinEASE-TK). As to conditions: ATP 5 μM, substrate TK 1 μM. Here is the method: (§1) Assay I: Determination of Inhibitory Activity Against FGFR Mutants
(§2) 1. Reagents and Equipment
(§3) 2.1 Preparation of 1× Kinase Reaction Buffer:
(§4) 1× Kinase reaction buffer was formulated with 1× volume of 5× kinase reaction buffer and 4× volume of water; 5 mM MgCl2; and 1 mM DTT.
(§5) 2.3 Screening of Compounds:
(§6) 1. Diluting a compound 4-fold in a dilution plate with DMSO, with a starting compound concentration of 2 mM.
(§7) 2. Diluting the compound 40-fold into 1× kinase reaction buffer and shaking it on a shaker for 20 minutes.
3. Formulating 2×FGFR1 V561M/FGFR2 V564F/FGFR3 K650E/VEGFR2 with 1× of enzyme reaction buffer.
4. Adding 2 μl FGFR1 V561M/FGFR2 V564F/FGFR3 K650E/VEGFR2 kinase (formulated in step 3) to each well of the reaction plate.
(§8) 5. Adding 1 μl of the compound diluted in buffer to each well, sealing the plate with a sealing membrane and centrifuging the plate at 1000 g for 30 seconds and leaving it at room temperature for 10 minutes.
(§9) 6. Formulating 2.5×TK-substrate-biotin and ATP mixture with 1× enzyme reaction buffer and adding 2 μl of K-substrate-biotin/ATP mixture to the reaction plate.
(§10) 7. Sealing the plate with a sealing membrane and centrifuging the plate at 1000 g for 30 seconds and allowing it to react at room temperature for 50 minutes.
(§11) 8. Formulating 4× Sa-XL 665 (250 nM) with HTRF assay buffer.
(§12) 9. Adding 5 μl Sa-XL 665 and 5 μl TK-Antibody-Cryptate to each well, centrifuging it at 1000 g for 30 seconds, and allowing it to react for 1 hour at room temperature.
(§13) 10. Reading fluorescence signals at 615 nm (Cryptate) and 665 nm (XL665) with Biotek.
(§14) 3.1 Calculation of the ratio for each well: the ratio was calculated as 665/615 nm.
(§15) 3.3 Calculation of IC50 and plotting of inhibition curves for the compounds.
(§16) The IC50 (half inhibition concentration) of a compound was obtained using the following non-linear fitting equation, wherein data analysis was performed using Graphpad 6.0 software.
(§17) Y=Bottom+(Top−Bottom)/(1+10^((Log IC50−X)*Hill Slope)) • X: log value of compound concentration; and Y: inhibition rate (% inh)
(§18) 3.4 Validation of Results
(§19) Data were exported from Envision and analyzed manually. The ratios were converted to inhibition rates and IC50 was calculated by Prism GraphPad 6.0 from the inhibition rates. IC50 was calculated again by the ratios to verify accuracy of the results.
Positive control IC50 was within 3 times of the average value
(In general: In TR-FRET formats the signal depends on donor and acceptor labels being close together.)

The next assay concerns the target T2, FGFR3 V555M (Homo sapiens, UniProt P22607, V555M).
T2 construct: purchased Signalchem F06-12GG
As to the kind of experiment: Assay I: inhibitory activity against FGFR mutants (HTRF KinEASE-TK). As to conditions: ATP 20 μM, substrate TK 1 μM. Here is the method: as §1, §2, §3, §4, §5, §6, §7, §8, §9, §10, §11, §12, §13, §14, §15, §16, §17, §18, §19

Another assay deals with T3, FGFR2 V564F (Homo sapiens, UniProt P21802, V564F).
T3 construct: purchased Signalchem F05-12FG
T3 sequence (P21802 22-821 V564F): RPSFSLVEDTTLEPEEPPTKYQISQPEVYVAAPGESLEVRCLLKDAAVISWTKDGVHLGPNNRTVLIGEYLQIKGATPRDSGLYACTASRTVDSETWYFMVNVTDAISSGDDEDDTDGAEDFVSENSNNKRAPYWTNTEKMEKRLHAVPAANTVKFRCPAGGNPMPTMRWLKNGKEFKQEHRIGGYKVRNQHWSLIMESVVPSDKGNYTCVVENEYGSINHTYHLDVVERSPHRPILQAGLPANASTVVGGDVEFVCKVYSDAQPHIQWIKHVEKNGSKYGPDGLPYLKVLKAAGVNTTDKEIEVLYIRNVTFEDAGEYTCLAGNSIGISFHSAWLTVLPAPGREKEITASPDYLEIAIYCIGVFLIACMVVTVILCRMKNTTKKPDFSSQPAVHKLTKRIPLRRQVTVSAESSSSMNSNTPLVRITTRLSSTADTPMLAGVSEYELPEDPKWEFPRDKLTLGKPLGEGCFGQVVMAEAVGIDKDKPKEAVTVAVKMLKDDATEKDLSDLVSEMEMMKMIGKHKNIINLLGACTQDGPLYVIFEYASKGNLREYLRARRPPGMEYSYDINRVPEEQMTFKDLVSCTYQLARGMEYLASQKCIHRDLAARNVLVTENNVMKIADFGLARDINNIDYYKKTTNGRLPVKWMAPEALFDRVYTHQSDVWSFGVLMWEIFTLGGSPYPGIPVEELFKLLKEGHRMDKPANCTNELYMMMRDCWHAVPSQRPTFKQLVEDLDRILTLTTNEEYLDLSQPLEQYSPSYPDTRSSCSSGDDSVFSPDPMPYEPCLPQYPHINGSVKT
Described as above. As to conditions: ATP 10 μM, substrate TK 1 μM. On the procedure: as §1, §2, §3, §4, §5, §6, §7, §8, §9, §10, §11, §12, §13, §14, §15, §16, §17, §18, §19

For the next assay, the target named is T4, FGFR1 V561M (Homo sapiens, UniProt P11362, V561M).
T4 construct: purchased Signalchem F04-13G
T4 sequence (P11362 22-822 V561M): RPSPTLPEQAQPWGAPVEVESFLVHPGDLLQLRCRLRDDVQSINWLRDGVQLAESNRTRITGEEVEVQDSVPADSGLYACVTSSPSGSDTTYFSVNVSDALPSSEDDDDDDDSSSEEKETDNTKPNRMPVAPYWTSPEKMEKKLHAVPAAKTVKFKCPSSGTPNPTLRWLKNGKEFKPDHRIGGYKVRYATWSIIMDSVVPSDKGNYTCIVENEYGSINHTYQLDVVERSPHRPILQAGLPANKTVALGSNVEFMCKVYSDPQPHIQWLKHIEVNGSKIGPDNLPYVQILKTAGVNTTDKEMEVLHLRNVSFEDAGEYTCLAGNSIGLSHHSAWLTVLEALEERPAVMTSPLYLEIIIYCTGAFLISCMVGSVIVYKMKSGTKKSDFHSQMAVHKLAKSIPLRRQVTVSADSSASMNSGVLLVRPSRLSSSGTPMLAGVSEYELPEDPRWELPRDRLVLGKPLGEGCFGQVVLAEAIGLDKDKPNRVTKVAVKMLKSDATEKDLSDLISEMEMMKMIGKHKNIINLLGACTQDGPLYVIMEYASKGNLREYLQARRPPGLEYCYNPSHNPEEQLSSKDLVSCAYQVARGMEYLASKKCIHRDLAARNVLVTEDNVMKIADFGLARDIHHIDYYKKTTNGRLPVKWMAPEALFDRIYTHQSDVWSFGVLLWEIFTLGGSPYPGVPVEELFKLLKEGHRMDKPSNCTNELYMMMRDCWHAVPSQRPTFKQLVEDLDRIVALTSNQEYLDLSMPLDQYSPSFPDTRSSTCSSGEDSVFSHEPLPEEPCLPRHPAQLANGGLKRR
The description is as above. Particulars: ATP 5 μM, substrate TK 1 μM. Here is the method:
as §1, §2, §3, §4, §5, §6, §7, §8, §9, §10, §11, §12, §13, §14, §15, §16, §17, §18, §19

Molecules are shown by their SMILES.

T1 sequence (P35968 20-1356): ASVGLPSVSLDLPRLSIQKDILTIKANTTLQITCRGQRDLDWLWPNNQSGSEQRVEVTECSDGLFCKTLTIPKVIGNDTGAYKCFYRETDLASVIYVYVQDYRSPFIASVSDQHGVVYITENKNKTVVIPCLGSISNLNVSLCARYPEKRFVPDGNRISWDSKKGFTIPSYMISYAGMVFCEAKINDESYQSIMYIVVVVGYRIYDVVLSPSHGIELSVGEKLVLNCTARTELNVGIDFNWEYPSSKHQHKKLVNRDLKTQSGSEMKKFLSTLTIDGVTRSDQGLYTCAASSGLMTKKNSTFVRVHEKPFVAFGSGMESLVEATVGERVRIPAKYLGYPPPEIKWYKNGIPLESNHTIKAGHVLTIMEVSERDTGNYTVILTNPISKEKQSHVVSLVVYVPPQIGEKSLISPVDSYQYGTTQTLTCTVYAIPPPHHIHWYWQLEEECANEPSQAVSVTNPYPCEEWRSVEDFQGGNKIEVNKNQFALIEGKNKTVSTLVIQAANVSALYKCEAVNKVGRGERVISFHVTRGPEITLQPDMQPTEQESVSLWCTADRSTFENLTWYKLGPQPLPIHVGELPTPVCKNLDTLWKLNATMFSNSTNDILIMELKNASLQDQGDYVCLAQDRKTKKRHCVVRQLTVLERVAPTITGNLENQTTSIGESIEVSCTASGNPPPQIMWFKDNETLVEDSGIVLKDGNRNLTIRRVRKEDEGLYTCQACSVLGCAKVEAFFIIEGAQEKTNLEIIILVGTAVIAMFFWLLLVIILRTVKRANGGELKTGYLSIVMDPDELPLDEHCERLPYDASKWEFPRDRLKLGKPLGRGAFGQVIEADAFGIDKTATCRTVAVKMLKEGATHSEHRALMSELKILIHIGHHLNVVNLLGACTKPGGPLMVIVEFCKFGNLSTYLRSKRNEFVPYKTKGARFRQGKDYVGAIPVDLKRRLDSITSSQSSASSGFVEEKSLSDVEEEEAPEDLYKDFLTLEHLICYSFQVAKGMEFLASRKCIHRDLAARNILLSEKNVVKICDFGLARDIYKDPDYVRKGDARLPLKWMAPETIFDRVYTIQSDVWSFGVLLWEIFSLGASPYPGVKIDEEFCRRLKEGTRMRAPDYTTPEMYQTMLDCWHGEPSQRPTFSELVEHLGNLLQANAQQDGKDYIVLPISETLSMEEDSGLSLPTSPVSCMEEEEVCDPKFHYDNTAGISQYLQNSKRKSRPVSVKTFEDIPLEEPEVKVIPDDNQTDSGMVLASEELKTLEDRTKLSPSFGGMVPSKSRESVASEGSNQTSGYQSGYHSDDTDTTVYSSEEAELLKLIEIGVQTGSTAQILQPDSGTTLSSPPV
T2 sequence (P22607 397-806 V555M limits assumed): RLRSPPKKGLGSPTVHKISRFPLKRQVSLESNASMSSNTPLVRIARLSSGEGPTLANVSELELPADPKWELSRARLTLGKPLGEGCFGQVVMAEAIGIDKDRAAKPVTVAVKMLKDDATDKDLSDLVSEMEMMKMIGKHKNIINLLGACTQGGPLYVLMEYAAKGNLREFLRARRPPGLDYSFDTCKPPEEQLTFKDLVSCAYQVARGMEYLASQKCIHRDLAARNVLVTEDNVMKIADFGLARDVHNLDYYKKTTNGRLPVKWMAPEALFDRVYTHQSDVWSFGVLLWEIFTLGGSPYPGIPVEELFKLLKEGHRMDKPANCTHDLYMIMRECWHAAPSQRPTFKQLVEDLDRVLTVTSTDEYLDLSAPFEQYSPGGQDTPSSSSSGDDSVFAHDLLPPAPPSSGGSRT

Turning to `CC(Oc1ccc2[nH]nc(-c3nc4c([nH]3)CN(CC3CCN(C)CC3)C4)c2c1)c1c(Cl)cncc1Cl` (stereo not shown) [Compound 2, 5-(1-(3,5-dichloropyridin-4-yl)ethoxy)-3-(5-((1-methylpiperidin-4-yl)methyl)-1,4,5,6-tetrahydropyrrolo[3,4-d]imidazol-2-yl)-1H-indazole], the 50% inhibitory concentration (IC50) against VEGFR2 was found to be 2.6 nM; on FGFR3 V555M it was 0.05 nM; on FGFR2 V564F it was 0.1 nM; against FGFR1 V561M it was 0.21 nM.

As for `CC(Oc1ccc2[nH]nc(-c3nc4c([nH]3)CN(C3CCN(C)CC3)C4)c2c1)c1c(Cl)cncc1Cl` (stereo not shown) [Compound 3, 5-(1-(3,5-dichloropyridin-4-yl)ethoxy)-3-(5-(1-methylpiperidin-4-yl)-1,4,5,6-tetrahydropyrrolo[3,4-d]imidazol-2-yl)-1H-indazole], the IC50 was found to be 5.4 nM at VEGFR2, 0.67 nM at FGFR3 V555M, 0.25 nM against FGFR2 V564F and 0.65 nM against FGFR1 V561M.

`CC(Oc1ccc2[nH]nc(-c3nc4c([nH]3)CN(C3CCN(C)CC3)CC4)c2c1)c1c(Cl)cncc1Cl` (stereo not shown) [Compound 4, 2-(5-(1-(3,5-dichloropyridin-4-yl)ethoxy)-1H-indazol-3-yl)-5-(1-methylpiperidin-4-yl)-4,5,6,7-tetrahydro-3H-imidazo[4,5-c]pyridine]: the IC50 on VEGFR2 amounted to 17.6 nM; at FGFR3 V555M it was 0.16 nM; against FGFR2 V564F it was 0.19 nM; against FGFR1 V561M, 0.31 nM.

In the case of `CC(Oc1ccc2[nH]nc(-c3nc4c([nH]3)CN(C(=O)C3CCN(C)CC3)C4)c2c1)c1c(Cl)cncc1Cl` (stereo not shown) [Compound 6, (2-(5-(1-(3,5-dichloropyridin-4-yl)ethoxy)-1H-indazol-3-yl)-4,6-dihydropyrrolo[3,4-d]imidazol-5(1H)-yl)(1-methylpiperidin-4-yl)ketone], the half-inhibitory concentration (IC50) was found to be 3.1 nM at VEGFR2, 0.12 nM at FGFR3 V555M, 0.11 nM against FGFR2 V564F and 0.38 nM against FGFR1 V561M.

`CC(Oc1ccc2[nH]nc(-c3nc4c([nH]3)CN(S(=O)(=O)c3cccnc3)C4)c2c1)c1c(Cl)cncc1Cl` (stereo not shown) [Compound 7, 5-(1-(3,5-dichloropyridin-4-yl)ethoxy)-3-(5-(pyridin-3-ylsulfonyl)-1,4,5,6-tetrahydropyrrolo[3,4-d]imidazol-2-yl)-1H-indazole]: the IC50 on VEGFR2 was determined as 42.9 nM; at FGFR3 V555M, 4 nM; against FGFR2 V564F it was 3.1 nM; against FGFR1 V561M, 1.6 nM.

In the case of `CC(Oc1ccc2[nH]nc(-c3nc4c([nH]3)CN(C(=O)[C@@H]3CCNC3)C4)c2c1)c1c(Cl)cncc1Cl` (stereo partly drawn) [Compound 9, (2-(5-(1-(3,5-dichloropyridin-4-yl)ethoxy)-1H-indazol-3-yl)-4,6-dihydropyrrolo[3,4-d]imidazol-5(1H)-yl)((R)-pyrrolidin-3-yl)ketone], the 50% inhibitory concentration (IC50) stood at 5.6 nM against VEGFR2, 0.16 nM on FGFR3 V555M, 0.27 nM against FGFR2 V564F and 0.41 nM against FGFR1 V561M.

Regarding `CC(Oc1ccc2[nH]nc(-c3nc4c([nH]3)CN(CCN3CCOCC3)C4)c2c1)c1c(Cl)cncc1Cl` (stereo not shown) [Compound 12], the IC50 against VEGFR2 was 14.2 nM; on FGFR3 V555M, 0.21 nM; at FGFR2 V564F it was 0.29 nM; against FGFR1 V561M, 1.2 nM.

`CC(Oc1ccc2[nH]nc(-c3nc4c([nH]3)CN(C(=O)CN3CCOCC3)C4)c2c1)c1c(Cl)cncc1Cl` (stereo not shown) [Compound 13, 1-(2-(5-(1-(3,5-dichloropyridin-4-yl)ethoxy)-1H-indazol-3-yl)-4,6-dihydropyrrolo[3,4-d]imidazol-5(1H)-yl)-2-morpholinoethan-1-one]: the IC50 against VEGFR2 turned out to be 5.5 nM; against FGFR3 V555M it was 0.22 nM; on FGFR2 V564F, 0.31 nM; against FGFR1 V561M it was 0.46 nM.

Consider `CC(Oc1ccc2[nH]nc(-c3nc4c([nH]3)CN(C(=O)CN(C)C)C4)c2c1)c1c(Cl)cncc1Cl` (stereo not shown) [Compound 14, 1-(2-(5-(1-(3,5-dichloropyridin-4-yl)ethoxy)-1H-indazol-3-yl)-4,6-dihydropyrrolo[3,4-d]imidazol-5(1H)-yl)-2-(dimethylamino)ethan-1-one], for which the IC50 against VEGFR2 was determined as 6.1 nM; at FGFR3 V555M, 0.03 nM; against FGFR2 V564F, 0.09 nM; at FGFR1 V561M, 0.11 nM.

On to `CC(Oc1ccc2[nH]nc(-c3nc4c([nH]3)CN(CCO)C4)c2c1)c1c(Cl)cncc1Cl` (stereo not shown) [Compound 15, 2-(2-(5-(1-(3,5-dichloropyridin-4-yl)ethoxy)-1H-indazol-3-yl)-4,6-dihydropyrrolo[3,4-d]imidazol-5(1H)-yl)ethan-1-ol], for which the half-inhibitory concentration (IC50) at VEGFR2 was found to be 67 nM; against FGFR3 V555M, 2 nM; on FGFR2 V564F it was 2 nM; against FGFR1 V561M, 3.6 nM.

Take `CC(Oc1ccc2[nH]nc(-c3nc4c([nH]3)CN(S(C)(=O)=O)C4)c2c1)c1c(Cl)cncc1Cl` (stereo not shown) [Compound 16, 5-(1-(3,5-dichloropyridin-4-yl)ethoxy)-3-(5-(methylsulfonyl)-1,4,5,6-tetrahydropyrrolo[3,4-d]imidazol-2-yl)-1H-indazole]: the 50% inhibitory concentration (IC50) is 22.1 nM at VEGFR2, 0.35 nM against FGFR3 V555M, 0.22 nM against FGFR2 V564F and 0.39 nM against FGFR1 V561M.

Consider `COC(=O)N1Cc2nc(-c3n[nH]c4ccc(OC(C)c5c(Cl)cncc5Cl)cc34)[nH]c2C1` (stereo not shown) [Compound 17, Methyl 2-(5-(1-(3,5-dichloropyridin-4-yl)ethoxy)-1H-indazol-3-yl)-4,6-dihydropyrrolo[3,4-d]imidazole-5(1H)-carboxylate], for which the 50% inhibitory concentration (IC50) on VEGFR2 turned out to be 49 nM; against FGFR3 V555M, 0.21 nM; on FGFR2 V564F it was 0.74 nM; at FGFR1 V561M, 1.2 nM.

With `CC(Oc1ccc2[nH]nc(-c3nc4c([nH]3)CN(S(=O)(=O)c3cnn(C)c3)C4)c2c1)c1c(Cl)cncc1Cl` (stereo not shown) [Compound 18, 5-(1-(3,5-dichloropyridin-4-yl)ethoxy)-3-(5-((1-methyl-1H-pyrazol-4-yl)sulfonyl)-1,4,5,6-tetrahydropyrrolo[3,4-d]imidazol-2-yl)-1H-indazole], the IC50 was 19.6 nM against VEGFR2, 1.2 nM against FGFR2 V564F and 2.2 nM on FGFR1 V561M.

In the case of `CC(Oc1ccc2[nH]nc(-c3nc4c([nH]3)CN(S(=O)(=O)c3ccn(C)n3)C4)c2c1)c1c(Cl)cncc1Cl` (stereo not shown) [Compound 20, 5-(1-(3,5-dichloropyridin-4-yl)ethoxy)-3-(5-((1-methyl-1H-pyrazol-3-yl)sulfonyl)-1,4,5,6-tetrahydropyrrolo[3,4-d]imidazol-2-yl)-1H-indazole], the results for the concentration for half-maximal inhibition (IC50) against VEGFR2, on FGFR2 V564F and against FGFR1 V561M were 13.3 nM, 1.7 nM and 1.8 nM, respectively.

Consider `C[C@@H](Oc1ccc2[nH]nc(-c3nc4c([nH]3)CN(C3CCN(S(C)(=O)=O)C3)C4)c2c1)c1c(Cl)cncc1Cl` (stereo partly drawn) [Compound 39, 5-((R)-1-(3,5-Dichloropyridin-4-yl)ethoxy)-3-(5-(1-(methylsulfonyl)pyrrolidin-3-yl)-1,4,5,6-tetrahydropyrrolo[3,4-d]imidazol-2-yl)-1H-indazole], for which the figures for the 50% inhibitory concentration (IC50) against VEGFR2, against FGFR3 V555M and at FGFR2 V564F were 60.5 nM, 1.4 nM and 1.3 nM, respectively.

As to `C[C@@H](Oc1ccc2[nH]nc(-c3nc4c([nH]3)CN(C(=O)CN3CCC(F)C3)C4)c2c1)c1c(Cl)cncc1Cl` (stereo partly drawn) [Compound 48, 1-(2-(5-((R)-1-(3,5-Dichloropyridin-4-yl)ethoxy)-1H-indazol-3-yl)-4,6-dihydropyrrolo[3,4-d]imidazol-5(1H)-yl)-2-(3-fluoropyrrolidin-1-yl)ethan-1-one], the IC50 at VEGFR2 turned out to be 11.1 nM; on FGFR3 V555M, 0.33 nM; on FGFR2 V564F, 0.084 nM.

As to `C[C@@H](Oc1ccc2[nH]nc(-c3nc4c([nH]3)CN(C(=O)CN3CCC(C#N)C3)C4)c2c1)c1c(Cl)cncc1Cl` (stereo partly drawn) [Compound 49, 1-(2-(2-(5-((R)-1-(3,5-dichloropyridin-4-yl)ethoxy)-1H-indazol-3-yl)-4,6-dihydropyrrolo[3,4-d]imidazol-5(1H)-yl)-2-oxoethyl)pyrrolidine-3-carbonitrile], the results for the half-maximal inhibitory concentration (IC50) at VEGFR2, against FGFR3 V555M and against FGFR2 V564F were 6.7 nM, 0.19 nM and 0.017 nM, respectively.

The compound `CCN1CCN(c2ccc(Nc3cc(N(C)C(=O)Nc4c(Cl)c(OC)cc(OC)c4Cl)ncn3)cc2)CC1` [Infigratinib, reference compound] yielded an IC50 at VEGFR2 of 99 nM. That is a double-digit nanomolar value.
